Laboratory results reported in US6124352A (priority 1994, dated 2000).
≈ marks a conversion by molar mass, not a printed value.

How the values were obtained:
[1] = system: nine fungal strains (Candida spp., Cryptococcus neoformans, Aspergillus fumigatus); assay: Minimum inhibitory concentration, first independent laboratory (broth); format: cell-based; settings: HR/Mops broth and Sabouraud dextrose broth
Experimental: Additional in vitro evaluation of the antifungal activity of the compounds was performed by two independent testing laboratories. One laboratory found the minimum inhibitory concentration (μg/ml), in fungal strains, of 3,5-dichloro-2,6-dinitrobenzoic acid to range from 1.56 to 6.3 when nine fungal strains (Candida spp., Cryptococcus neoformans, Aspergillus fumigatus) were tested in HR/Mops broth and Sabouraud dextrose broth.

[2] = Water solubility; format: physicochemical; settings: in words
[3] = system: bacteria; assay: Activity against bacteria, second independent laboratory (standard agar dilution method); format: cell-based; settings: Isosensitest agar
Experimental: (§1) The second laboratory compared the minimum inhibitory concentrations (μg/ml) of 3,5-dichloro-2,6-dinitrobenzoic acid and Amphotericin B, an antifungal agent. The strains were plated, in the standard agar dilution method, on Isosensitest agar containing a single antifungal agent. […] As such, when Amphotericin B is tested in agar, its activity appears higher than it would in vivo.

[4] = system: C. albicans C316; assay: Stability and activity against C. albicans C316 in various broth media; format: cell-based; settings: even in the presence of 50% mouse serum
Experimental: (§2) In comparison, the IC50 of pentamidine, the agent now widely used to counter P. carinii fungus infections, was 2 μg/ml.

[5] = system: Pneumocystis carinii; assay: Pneumocystis carinii short term culture, viability by incorporation of [3H] para-aminobenzoic acid; format: cell-based; settings: fungus removed from rat lungs, read-out: IC50 against Pneumocystis carinii
Experimental: as §2

[6] = system: wide range of fungi; assay: Minimum inhibitory concentration, second independent laboratory (standard agar dilution method), fungi; format: cell-based; settings: Isosensitest agar
Experimental: as §1

[7] = system: Candida albicans; assay: In Vitro fungicidal test (number of colonies/plate); settings: for Number of Colonies/Plate, Plate No. 1 / Number of Colonies/Plate, Plate No. 2 / Number of Colonies/Plate, Plate No. 3 / Number of Colonies/Plate, Plate No. 4 / Number of Colonies/Plate, Plate No. 5 / Number of Colonies/Plate, Plate No. 6 / Number of Colonies/Plate, Plate No. 7 / Number of Colonies/Plate, Plate No. 8 / Number of Colonies/Plate, Plate No. 9: drug final concentration 0.1 mg/ml, 80 min at 30° C., plates 48 hours; for Number of Colonies/Plate, Plate No. 1: plate 1; for Number of Colonies/Plate, Plate No. 2: plate 2; for Number of Colonies/Plate, Plate No. 3: plate 3; for Number of Colonies/Plate, Plate No. 4: plate 4; for Number of Colonies/Plate, Plate No. 5: plate 5; for Number of Colonies/Plate, Plate No. 6: plate 6; for Number of Colonies/Plate, Plate No. 7: plate 7; for Number of Colonies/Plate, Plate No. 8: plate 8; for Number of Colonies/Plate, Plate No. 9: plate 9
Experimental: The 10% wlw malt extract, 2% agar solution used for plating in this test was prepared by mixing 100 g malt extract, 20 g agar, and a pellet of sodium hydroxide (about 0.1 g) in 1 liter of distilled, deionized water (DDW). This solution was sterilized by autoclaving, and then poured into plates.
The yeast-malt (YM) broth was composed of 3 g yeast extract, 3 g malt extract, 5 g peptone, and 10 g glucose in 1 liter DDW. The solution was brought to pH 7.2 with inorganics (e.g., hydrochloric acid or sodium hydroxide), then sterilized by autoclaving.
Stock solutions of the drugs to be tested were made in a mixture of dimethylformamide (DMF) and 0.05 M phosphate buffer at pH 7.2, combined in a 4:6 ratio of DME to buffer. Test solutions of 1 mg/ml solutions were prepared.
Two control solutions were prepared. One was the phosphate buffer as described above, the other was a mixture of DMF and the buffer in a 4:6 ratio as described above.
All drug and control solutions were sterilized by filtration through a 0.2 g filter.

[8] = system: Candida albicans; assay: Relative in vitro efficacy (growth inhibition of Candida albicans on agar replicate plates); format: cell-based; settings: 100-150 cells of Candida albicans plated on replicate agar plates containing 15 μg of compound
Experimental: These relative efficacy numbers were obtained by plating 100-150 cells of Candida albicans on replicate agar plates containing 15 μg of the named compound and by determining the relative growth inhibition of each compound.

[9] = system: mice; assay: Acute intravenous toxicity (LD50); format: in vivo; settings: one intravenous dose, observed for 14 days
Experimental: (§3) The acute intravenous toxicity of 3,5-dibromo-2,6-dinitrobenzoic acid in mice is assessed by determining the mean lethal dose (LD50) using a well-known method. Mice are fed a standard laboratory diet for 8-10 weeks. Five animals of each sex are administered one intravenous dose of 3,5-dibromo-[…] acid. The animals are observed for 14 days, and the number of deaths noted.

[10] = system: Candida albicans; assay: Serial Dilution Assay, Candida albicans; format: cell-based; settings: 24 hours at 30°, OD 600 nm
Experimental: (§4) Serial dilution assays of 3,5-dibromo-2,6-dinitrobenzoic acid and nystatin were performed on Candida albicans, Trichophyton or Asperigillus. 9 ml (1×10^4 cells) of each diluted yeast suspension was added to 1 ml of various serial dilutions of the drug to be tested in 15 ml centrifuge tubes. The final drug concentrations ranged from 0.1 to 0.0001 mg/ml. Two control tubes were also prepared using DDW instead of a drug solution. The tubes were capped and incubated for 24 hours at 30° with shaking at 200 rpm. The fungal growth was assessed by measuring optical density at 600 nm using a nephelometer.

[11] = system: Trichophyton; assay: Serial Dilution Assay, Trichophyton; format: cell-based; settings: 24 hours at 30°, OD 600 nm
Experimental: as §4

[12] = system: Asperigillus; assay: Serial Dilution Assay, Aspergillus; format: cell-based
Experimental: as §4

[13] = Acute intravenous toxicity (LD50); format: in vivo; settings: mouse, in vivo; mice, one intravenous dose, observed for 14 days
Experimental: as §3

[14] = system: mice; settings: mouse, in vivo; cited from earlier work
[15] = read-out: final concentration at which fungal growth was completely inhibited

Compound | Number of Colonies/Plate, Plate No. 1 [7] | Number of Colonies/Plate, Plate No. 2 [7] | Number of Colonies/Plate, Plate No. 3 [7] | Number of Colonies/Plate, Plate No. 4 [7] | Number of Colonies/Plate, Plate No. 5 [7] | Number of Colonies/Plate, Plate No. 6 [7] | Number of Colonies/Plate, Plate No. 7 [7] | Number of Colonies/Plate, Plate No. 8 [7] | Number of Colonies/Plate, Plate No. 9 [7] | Relative In Vitro Efficacy [8] | other results
O=C(O)c1c([N+](=O)[O-])c(Cl)cc(Cl)c1[N+](=O)[O-] [Example 2, 3,5-dichloro-2,6-dinitrobenzoic acid] | 22 | 4 | 3 | 31 | 28 | 33 | 20 | 19 | 25 | 100 | MIC [1]: 1.56 to 6.3 µg/mL (≈ 5.55 to 22.4 µM); water solubility [2]: water soluble; activity against bacteria [3]: not against bacteria; stability and activity against C. albicans C316 [4]: remained stable and active; IC50 [5]: 17 µg/mL (≈ 60.5 µM); fungal inhibition compared with Amphotericin B ([6]; agar-plate conditions optimized for Amphotericin B): less fungal inhibition than Amphotericin B; MIC ([6]; wide range of fungi): 4 to 31 µg/mL (≈ 14.2 to 110 µM); fungicidal activity relative to amphotericin B ([7]; from Table 2): about twice as effective as amphotericin B; fungicidal activity relative to ketoconazole ([7]; from Table 2): about four times as effective as ketoconazole
O=C(O)c1cc([N+](=O)[O-])c(Cl)c([N+](=O)[O-])c1Cl [2,4-dicholoro-3,5-dinitro benzoic acid] | – | – | – | – | – | – | – | – | – | 10 | –
C[C@@H]1[C@H](O)[C@@H](C)/C=C/C=C/C=C/C=C/C=C/C=C/C=C/[C@H](O[C@@H]2O[C@H](C)[C@@H](O)[C@H](N)[C@@H]2O)C[C@@H]2O[C@](O)(C[C@@H](O)C[C@@H](O)[C@H](O)CC[C@@H](O)C[C@@H](O)CC(=O)O[C@H]1C)C[C@H](O)[C@H]2C(=O)O [Amphotericin B, amphotericin B] | 50 | 15 | 9 | 56 | 51 | 48 | 55 | 65 | 64 | – | –
COC(=O)c1c([N+](=O)[O-])c(Br)cc(Br)c1[N+](=O)[O-] [Example 4, methyl 3,5-dibromo-2,6-dinitrobenzoate] | – | – | – | – | – | – | – | – | – | 4 | –
2,4-dibromo-3,5-dinitrobenzoic acid | – | – | – | – | – | – | – | – | – | – | LD50 [9]: 240 mg/kg
CC(=O)N1CCN(c2ccc(OCC3COC(Cn4ccnc4)(c4ccc(Cl)cc4Cl)O3)cc2)CC1 (centres unmarked) [Ketoconazole, ketoconazole] | 82 | 39 | 37 | 94 | 103 | 78 | 120 | 122 | 95 | – | –
O=C(O)c1c([N+](=O)[O-])c(Br)cc(Br)c1[N+](=O)[O-] [Example 1, 3,5-dibromo-2,6-dinitrobenzoic acid] | – | – | – | – | – | – | – | – | – | 100 | MIC [10, 15]: 1.5 µg/mL (≈ 4.06 µM); MIC [11, 15]: 1.5 µg/mL (≈ 4.06 µM); MIC ([12]; 24 h, read-out: final concentration at which fungal growth was completely inhibited): 1.5 µg/mL (≈ 4.06 µM); LD50 at 336 h [13]: ~240 mg/kg
C[C@@H]1[C@H](O)[C@@H](C)/C=C/C=C/CC/C=C/C=C/C=C/C=C/C(O[C@H]2O[C@H](C)[C@@H](O)[C@H](N)[C@@H]2O)CC2O[C@](O)(CC(O)C(O)CCC(O)CC(O)CC(O)CC(=O)O[C@H]1C)CC(O)C2C(=O)O (some centres unmarked) [nystatin, reference compound] | – | – | – | – | – | – | – | – | – | – | final concentration at which fungal growth was completely inhibited [10]: 1.5 µg/mL; final concentration at which fungal growth was completely inhibited [11]: 1.5 µg/mL; toxicity compared with the compound of the invention tested [14]: significantly higher toxicity than the compound of the invention tested; final concentration at which fungal growth was completely inhibited ([12]; Asperigillus, 24 hours at 30°, OD 600 nm): 1.5 µg/mL
N=C(N)c1ccc(OCCCCCOc2ccc(C(=N)N)cc2)cc1 [pentamidine, reference compound] | – | – | – | – | – | – | – | – | – | – | IC50 [5]: 2 µg/mL (≈ 5.87 µM)
